Assay results taken from PMC3578765 (PLoS Neglected Tropical Diseases, 2013).
Where two headings read alike, the source gives them in different places.

Legend:
[1] = system: BR DEN2 01-01 infection of Huh-7.5; assay: assay validation with reference compounds, 10-pt DRC of percent infection; assay type: cell-based, Dengue virus
Experimental: (§1) An immunofluorescence assay (IFA) used to detect dengue infection was optimized for the dengue HT/HCA. Briefly, cells were fixed with 4% (w/v) paraformaldehyde (PFA) for 20 min at room temperature (Rm T). PFA-fixed cells were treated with 0.25% (v/v) Triton-X for 20 min at Rm T. DENV-infected cells were detected by probing with 4G2 mAb prepared in blocking buffer: DPBS containing 5% FBS for 30 min at 37°C, followed by AlexaFluor-conjugated goat anti-mouse IgG (H+L) (Invitrogen Molecular Probes, USA) prepared in blocking buffer for 30 min at 37°C. Cell nuclei counterstained with 5 µg/mL 4′,6-diamidino-2-phenylindole (DAPI, Sigma-Aldrich, USA). Two washing cycles of DPBS was done after each step of the IFA. After the final washing, digital images were acquired using a high-throughput confocal fluorescence imaging system (Evotec Technologies High-Throughput Cell Analyzer Opera, Perkin Elmer, USA). The digital images were taken from 3 different fields of each well at 20× magnification.
(§2) Acquired images were analyzed using our in-house developed image-mining platform (IM). This platform is designed to do high-content screening and directly access the database of images that were sequentially analyzed with specially designed algorithms developed as a customized plug-in to the IM platform. The results of all the analyses were stored in a centralized database. […] One channel (DAPI-channel) captures the signal emitted by DAPI-stained nuclei at 450 nm, while the other channel (A488-channel) captures the signal emitted by the AlexaFluor 488 dye bound to the dengue E protein-antibody complexes confined in the cytoplasm of dengue-infected cells at 540 nm. To define the percentage of dengue-infected cells and, conversely the non-infected cells, a modified watershed method was applied. Compared to the original watershed algorithm that uses the morphological gradient image, a weighted gradient image is used for the topographic surface, whose weights are defined as the ridge values computed from the eigen values of the original image. The percentage of non-infected cells, which is also defined as the percent inhibition or percent activity, is derived by using the formula: [1−(A488-positive cells/total cells)]×100%.
(§3) In both validation experiments, Huh-7.5 was mixed with DENV1, DENV2, DENV3 or DENV4 at a M.O.I. of 0.5 or VM only for MOCK-infection and dispensed in designated wells using the Thermo Scientific WellMate automated liquid dispenser. For the first validation experiment, the statistical reliability of the dengue HT/HCA was determined by calculating the Z'-factor for the percent infection or percent inhibition. Briefly, the Z'-factor of a defined parameter is calculated using the formula: 1−[(3σp+3σn)/(|μp−μn|)], where the μp, μn, σp and σn are the means (μ) and standard deviations (σ) of the positive (p) and negative (n) controls. For the second validation experiment, the reference compounds were prepared in 2-fold serial dilutions and dispensed in duplicate wells in the 384-well plate, followed by the Huh-7.5 and DENV mixture (M.O.I. 0.5). Percent infection, percent inhibition, and percent cell number were determined using the customized IM platform plug-in. Scatter-plot distribution was generated using TIBCO Spotfire 4.5.0 (TIBCO Software Inc., Somerville, MA). The ten-point dose-response curves (10-pt DRCs) were plotted using the non-linear regression formula: log (inhibitor) vs. response – variable slope (4 parameters), available in GraphPad Prism 5.04 (GraphPad Software Inc., San Diego, CA). The top and bottom values of the reference compounds were unconstrained when the curve fittings of the 10-pt. DRCs were generated.

Huh-7.5 = assay: assay validation with reference compounds, percent cell number in DENV2-infected Huh-7.5; details: percent cell number normalized against MOCK-infected Huh-7.5, DENV2-infected cells
Experimental: Acquired images were analyzed using our in-house developed image-mining platform (IM). This platform is designed to do high-content screening and directly access the database of images that were sequentially analyzed with specially designed algorithms developed as a customized plug-in to the IM platform. The results of all the analyses were stored in a centralized database. […] To define the percentage of dengue-infected cells and, conversely the non-infected cells, a modified watershed method was applied. Compared to the original watershed algorithm that uses the morphological gradient image, a weighted gradient image is used for the topographic surface, whose weights are defined as the ridge values computed from the eigen values of the original image. The percentage of non-infected cells, which is also defined as the percent inhibition or percent activity, is derived by using the formula: [1−(A488-positive cells/total cells)]×100%.
as §3, with “The ten-point dose-response curves (10-pt DRCs) were plotted using the non-linear regression formula: log (inhibitor) vs. response – variable slope (4 parameters), available in GraphPad Prism 5.04 (GraphPad Software Inc., San Diego, CA).” left out
Similarly, the percent cell number was normalized based on the measured cell number in MOCK-infected (100% cell number) controls according to the formula: % cell number = (Cmeasured/μCMOCK-infect)×100%, where Cmeasured is the measured cell number in the test well and μCMOCK-infect is the average cell number in the MOCK-infected controls. The statistical validity of the dengue high-throughput screening was determined by calculating for the Z'-factor using the 0.5% DMSO-treatment and MOCK-infected Huh-7.5 as negative and positive controls, respectively. In addition, other parameters, including DRC of a reference compound, were used to evaluate the assay performance.

[2] = system: DENV1 (Den1 BR/90) infection in Huh-7.5; assay: image-based dengue HT/HCA, 10-pt dose-response hit confirmation, DENV1; assay type: cell-based; details: Dengue virus, read-out: EC50 DENV1
Experimental: as §1, §2
(§4) The BioFocus kinase inhibitor library were screened against DENV1, DEN2, DENV3 and DENV4 at 10 µM in 0.5% (v/v) DMSO. MOCK-infected Huh-7.5 and IFN-α2A (500 U/mL) were used as positive controls, and the 0.5% DMSO vehicle was used as negative control. Four sets of 15 384-well plates (13 plates designated for test compounds and 2 plates designated for DMSO vehicle control) were used for the primary screening of the BioFocus kinase inhibitor library against each dengue serotype. Each of the 4,000 compounds in the library was tested in single wells. For data normalization and quality control of the screening, each test compound plate contained 16 replicates of the positive and negative controls. After dispensing the test compounds IFN-α2A and DMSO vehicle in the 384-well plates, Huh-7.5 was mixed with DENV1, DENV2, DENV3, or DENV4 to achieve a M.O.I. of 0.5 and dispensed at 5×10^3 cells/well using the Thermo Scientific WellMate automated liquid dispenser. For the MOCK-infected Huh-7.5, the cells were mixed with VM and dispensed under the same conditions as previously stated. Virus infection in the presence of the compounds proceeded at 37°C, 5% CO2 for 96 hrs. Compound activity based on percent inhibition and cell toxicity was assessed by IFA and IM analysis as described above. Scatter-plot distribution of the entire screening was generated using TIBCO Spotfire 4.5.0 (TIBCO Software Inc., Somerville, MA).
(§5) The calculated activity was normalized to a percent inhibition (PI) based on the MOCK-infected cells (100% activity, or zero infection) and dengue-infected cells (0% activity, or maximum measured infection percentage) controls according to the formula: [drawing 1] where: PImeasured - percent inhibition of test compound […]

[3] = system: DENV2 (BR DEN2 01-01) infection in Huh-7.5; assay: image-based dengue HT/HCA, 10-pt dose-response hit confirmation, DENV2; assay type: cell-based; details: Dengue virus, read-out: EC50 DENV2
Experimental: as §1, §2, §4, §5

[4] = system: DENV3 (BR DEN3 290-02) infection in Huh-7.5; assay: image-based dengue HT/HCA, 10-pt dose-response hit confirmation, DENV3; assay type: cell-based; details: Dengue virus, read-out: EC50 DENV3
Experimental: as §1, §2, §4, §5

[5] = system: DENV4 (DEN4 TVP-360) infection in Huh-7.5; assay: image-based dengue HT/HCA, 10-pt dose-response hit confirmation, DENV4; assay type: cell-based; details: Dengue virus, read-out: EC50 DENV4
Experimental: as §1, §2, §4, §5

[6] = compound toxicity, resazurin reduction assay in uninfected Huh-7.5; assay type: cell-based; details: human, uninfected Huh-7.5 cells, Huh-7.5 without viral infection, 10-pt DRC
Experimental: The hits identified from the primary screening were also tested at 10 µM against CHIKV-118-GFP infection in HuH-7 cells and evaluated by resazurin reduction assay (RRA). Resazurin (7-Hydroxy-3H-phenoxazin-3-one 10-oxide) is reduced to the red fluorescent resorufin by redox enzymes produced by viable cells, and is a good indication of metabolic capacity, and by extension cell viability. The amount of converted resorufin was measured as relative fluorescence readout (RFU) at excitation/emission of 531/572 nm using a fluorescence spectrophotometer (Victor^3 V Spectrophotometer, Perkin Elmer, USA). Briefly, cells were inoculated with CHIKV-118-GFP at an M.O.I. of 0.5 and seeded in 384-well plates containing reference and primary hit compounds and incubated under humidified conditions for 72 hrs at 37°C. Resazurin solution was added to a final concentration of 10 µM and further incubated for another 12 hrs prior to measurement of RFU. The percent activity of the compounds, reflected by the percent cell viability, was quantified by normalizing against the RFUs of MOCK-infected cells and CHIKV-118-GFP-infected cells. Compounds resulting in normalized RFU ≥70% were considered as positive hits for anti-CHIKV activity.
To confirm the compound activity against dengue viruses, the selected hits from the primary screening were tested in a 10-pt. DRC (2-fold serial dilution from 50 µM) using the same assay described for the dengue HT/HCA. Each concentration of the hit compounds was tested in duplicate wells. Data generated from image analysis of the 10-pt. DRC was plotted and analyzed using the non-linear regression formula: log (inhibitor) vs. response – […] (4 parameters) in GraphPad Prism 5.04. […] Compound toxicity was determined by testing the hit compounds in a 10-pt. DRC against Huh-7.5 in the absence of viral infection and measuring the cell viability using resazurin reduction assay as described above. […] Confirmed hits were selected based on their Selectivity Index (SI), a dimensionless value that indicates the magnitude between cytotoxic concentration and effective concentration, and is calculated as: SI = CC50/EC50.

[7] = percent infection normalized against DENV2-infected Huh-7.5, M.O.I. 0.5, read-out: IC50
[8] = DENV1, Huh7.5, Huh-7.5, M.O.I. 0.5, 96 hrs
[9] = DENV2, Huh7.5, Huh-7.5, M.O.I. 0.5, 96 hrs
[10] = DENV3, Huh7.5, Huh-7.5, M.O.I. 0.5, 96 hrs
[11] = DENV4, Huh7.5, Huh-7.5, M.O.I. 0.5, 96 hrs

Row | Compound | IC50 [1, 7] [µM] | CC50 (Huh-7.5) [µM] | EC50 [2, 8] [µM] | EC50 [3, 9] [µM] | EC50 [4, 10] [µM] | EC50 [5, 11] [µM] | CC50 at 72 h [6] [µM] | further results
1 | C=CCNC(=O)c1cc([N+](=O)[O-])cc2c(=O)[nH]c(Nc3ccc(Cl)c(Cl)c3)nc12 [AZ 10417808] | 82.3 | 148 | – | – | – | – | – | –
2 | CCN(CC)CC1CCN(c2ncc3ncnc(Nc4ccc(F)c(Cl)c4)c3n2)CC1 [BIBU 1361] | 4.34 | 4.5 | – | – | – | – | – | –
3 | NC(Cc1ccc(Cl)cc1)c1csc(Nc2ccc(S(N)(=O)=O)cc2)n1 (stereo not shown) [CND0968] | – | – | > 25 | 6.4 | 6.2 | 1.1 | 29 | –
4 | CCCc1cnc(Nc2nc(C(N)Cc3ccccc3)cs2)nc1 (stereo not shown) [CND0975] | – | – | 1 | 5.5 | > 50 | > 50 | 44 | –
5 | COc1ccc(CC(N)c2csc(Nc3nccc(NCc4ccco4)n3)n2)cc1 (stereo not shown) [CND1020] | – | – | 3.9 | – | – | – | 25 | EC50 ([3]; DENV2, Huh7.5, 96 h): 13 µM; EC50 ([4]; DENV3, Huh7.5, 96 h): 3.4 µM; EC50 ([5]; DENV4, Huh7.5, 96 h): 19 µM
6 | NC(Cc1ccccc1)c1csc(Nc2ccccn2)n1 (stereo not shown) [CND1043] | – | – | – | 3.1 | 5.7 | 6.9 | 43 | EC50 ([2]; Huh7.5, 96 h): 4.1 µM
7 | COc1cccc(Nc2nc(C(N)CC(C)C)cs2)n1 (stereo not shown) [CND1057] | – | – | 3.3 | 1 | 2.9 | 10 | 23 | –
8 | NC(Cc1ccc(C(F)(F)F)cc1)c1csc(Nc2ncccn2)n1 (stereo not shown) [CND1081] | – | – | 1.5 | 2.1 | 3.1 | 12 | > 100 | –
9 | NC(Cc1ccc(C(F)(F)F)cc1)c1csc(Nc2nccc(NCCCO)n2)n1 (stereo not shown) [CND1172] | – | – | 7.3 | 10.4 | 4.8 | 7.5 | 15 | –
10 | CS(=O)(=O)c1cnc(Nc2nc(C(N)Cc3ccc(Cl)cc3)cs2)nc1 (stereo not shown) [CND1244] | – | – | 1.7 | 2.9 | 1.6 | 4.4 | 21 | –
11 | CCN(CC)CCCC(C)Nc1ccnc2cc(Cl)ccc12 (stereo not shown) [Chloroquine] | – | – | – | – | – | – | – | IC50 ([1]; Dengue virus, DENV2, Huh7.5): 17.4 µM
12 | CN1c2cc3c(cc2N=C(c2ccc(C(=O)O)cc2)c2ccccc21)C(C)(C)CCC3(C)C [LE 135] | 11.7 | 23.9 | – | – | – | – | – | –
13 | Cc1c(-c2ccc(O)cc2)nn(-c2ccc(O)cc2)c1-c1ccc(OCCN2CCCCC2)cc1 [MPP] | 6.85 | 5.86 | – | – | – | – | – | –
